Laboratory results from patent US12662489B2 (Sitryx Therapeutics Limited, priority 2023, dated 2026).

Legend:
[1] = biological target: T1, MTHFD1 recombinant human enzyme (Homo sapiens, UniProt P11586); assay: MTHFD1 inhibition assay (NAD(P)H-Glo luminescence); conditions: MTHFD1 IC50, recombinant human enzyme 200 nM, NADP, band
T1 sequence (P11586 2-291 limits assumed): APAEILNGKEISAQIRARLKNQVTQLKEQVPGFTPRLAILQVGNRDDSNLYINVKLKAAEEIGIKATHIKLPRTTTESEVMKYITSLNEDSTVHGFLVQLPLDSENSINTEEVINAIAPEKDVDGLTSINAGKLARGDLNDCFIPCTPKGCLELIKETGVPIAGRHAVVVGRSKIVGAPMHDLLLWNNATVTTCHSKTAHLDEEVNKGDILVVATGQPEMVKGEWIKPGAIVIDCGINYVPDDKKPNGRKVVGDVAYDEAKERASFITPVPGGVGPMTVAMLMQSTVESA

[2] = biological target: T2, MTHFD2 recombinant human enzyme (Homo sapiens, UniProt P13995); assay: MTHFD2 inhibition assay (NAD(P)H-Glo luminescence); conditions: for MTHFD1/MTHFD2 IC50 ratio: selectivity of MTHFD2 inhibition over MTHFD1, band
T2 sequence (P13995 36-350): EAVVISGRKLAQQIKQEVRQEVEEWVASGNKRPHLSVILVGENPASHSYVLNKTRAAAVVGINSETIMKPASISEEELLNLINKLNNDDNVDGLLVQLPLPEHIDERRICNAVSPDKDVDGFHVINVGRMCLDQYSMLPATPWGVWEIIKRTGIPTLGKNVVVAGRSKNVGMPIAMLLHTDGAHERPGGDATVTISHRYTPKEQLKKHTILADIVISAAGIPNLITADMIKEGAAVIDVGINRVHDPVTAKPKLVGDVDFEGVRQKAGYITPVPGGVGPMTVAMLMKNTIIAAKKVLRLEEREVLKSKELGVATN

human CD4+ T cells = assay: Human CD4+ T-cell proliferation assay (CFSE, CD3/28 beads); conditions: read-out: Proliferation IC50
[3] = biological target: T3, human α4β2 neuronal nicotinic receptor (Homo sapiens, UniProt P17787+P43681); assay: α4β2 neuronal nicotinic receptor assay (agonist radioligand, [3H]cytisine); type: binding; conditions: transfected SH-SY5Y cell membranes, 0.6 nM [3H]cytisine, band
T3 construct: host or cells: SH-SY5Y cells (membrane homogenates)
Description: Cell membrane homogenates (30 μg protein) were incubated for 120 min at 4° C. with 0.6 nM [3H]cytisine in the absence or presence of the test compound in a buffer containing 50 mM Tris-HCl (pH 7.4), 120 mM NaCl, 5 mM KCl, 2.5 mM CaCl2 and 1 mM MgCl2. Nonspecific binding was determined in the presence of 10 μM nicotine bitartrate. Following incubation, the samples were filtered rapidly under vacuum through glass fiber filters (GF/B, Packard) presoaked with 0.3% PEI and rinsed several times with ice-cold 50 mM Tris-HCl using a 96-sample cell harvester (Unifilter, Packard).
The filters were dried then counted for radioactivity in a scintillation counter (Topcount, Packard) using a scintillation cocktail (Microscint 0, Packard). The results were expressed as a percent inhibition of the control radioligand specific binding. The standard reference compound was nicotine bitartrate.
A number of example compounds of formula (I) were tested to evaluate their affinity for the human α4β2 neuronal nicotinic receptor expressed in transfected SH-SY5Y cells, determined in a radioligand binding assay.

T3 sequence (P43681 29-627 limits assumed): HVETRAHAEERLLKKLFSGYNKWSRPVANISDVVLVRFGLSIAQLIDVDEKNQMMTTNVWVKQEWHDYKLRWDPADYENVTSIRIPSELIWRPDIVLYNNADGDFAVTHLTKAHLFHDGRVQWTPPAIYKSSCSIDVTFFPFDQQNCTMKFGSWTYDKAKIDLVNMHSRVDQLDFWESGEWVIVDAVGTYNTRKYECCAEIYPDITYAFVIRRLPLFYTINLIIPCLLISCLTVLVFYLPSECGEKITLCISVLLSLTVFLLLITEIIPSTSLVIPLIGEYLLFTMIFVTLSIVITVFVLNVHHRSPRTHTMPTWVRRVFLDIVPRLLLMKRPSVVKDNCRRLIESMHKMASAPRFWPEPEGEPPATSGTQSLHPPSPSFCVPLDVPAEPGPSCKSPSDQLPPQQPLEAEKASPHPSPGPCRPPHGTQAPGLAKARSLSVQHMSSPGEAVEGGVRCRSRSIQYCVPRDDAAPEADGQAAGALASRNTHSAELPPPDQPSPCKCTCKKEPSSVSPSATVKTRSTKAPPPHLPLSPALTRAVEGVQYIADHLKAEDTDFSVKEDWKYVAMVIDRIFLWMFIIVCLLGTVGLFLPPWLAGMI
T3 sequence (P17787 26-502): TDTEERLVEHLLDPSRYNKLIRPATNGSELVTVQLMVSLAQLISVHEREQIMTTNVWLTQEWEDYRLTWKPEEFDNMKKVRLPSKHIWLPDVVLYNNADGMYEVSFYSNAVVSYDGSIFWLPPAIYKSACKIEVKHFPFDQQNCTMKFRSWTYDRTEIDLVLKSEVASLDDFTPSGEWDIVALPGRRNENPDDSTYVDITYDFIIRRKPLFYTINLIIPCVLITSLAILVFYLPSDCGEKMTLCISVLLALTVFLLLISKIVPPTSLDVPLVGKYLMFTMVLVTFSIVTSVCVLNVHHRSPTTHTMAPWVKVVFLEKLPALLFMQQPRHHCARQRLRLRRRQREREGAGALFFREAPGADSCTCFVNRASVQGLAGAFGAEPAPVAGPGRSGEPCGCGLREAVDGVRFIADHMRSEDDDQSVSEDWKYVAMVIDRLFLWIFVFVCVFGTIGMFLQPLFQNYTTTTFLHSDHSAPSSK

IC50 [1]	IC50 [2]	MTHFD1/MTHFD2 IC50 ratio [2]	IC50 [3]	Compound	IC50 (human CD4+ T cells)
1000 to 5000 nM	10 to 100 nM	J (>30)	20000 to 100000 nM	COC[C@H]1CN(c2cc(C)c3c4c(c(=O)oc3c2C)CN(C(=O)c2ccc(C(=O)NS(=O)(=O)N3CCCC3)cc2F)CC4)CCN1C [Example 175, (R)-3-fluoro-4-(8-(3-(methoxymethyl)-4-methylpiperazin-1-yl)-7,10-dimethyl-5-oxo-1,3,4,5-tetrahydro-2H-chromeno[3,4-c]pyridine-3-carbonyl)-N-(pyrrolidin-1-ylsulfonyl)benzamide]	1000 to 5000 nM
1000 to 5000 nM	10 to 100 nM	J (>30)	20000 to 100000 nM	COC[C@H]1CN(c2cc(C)c3c4c(c(=O)oc3c2C)CN(C(=O)c2cc(N(C)C)c(C(=O)NS(=O)(=O)N3CCCC3)cc2Cl)CC4)CCN1C [Example 150, (R)-5-chloro-2-(dimethylamino)-4-(8-(3-(methoxymethyl)-4-methylpiperazin-1-yl)-7,10-dimethyl-5-oxo-1,3,4,5-tetrahydro-2H-chromeno[3,4-c]pyridine-3-carbonyl)-N-(pyrrolidin-1-ylsulfonyl)benzamide]	10 to 30 nM
100 to 1000 nM	1 to 10 nM	J (>30)	> 100000 nM	COC[C@H]1CN(c2cc(C)c3c4c(c(=O)oc3c2C)CN(C(=O)c2cc(N(C)C)c(C(=O)NS(=O)(=O)C3(C)CC3)cc2F)CC4)CCN1C [Example 145, (R)-2-(dimethylamino)-5-fluoro-4-(8-(3-(methoxymethyl)-4-methylpiperazin-1-yl)-7,10-dimethyl-5-oxo-1,3,4,5-tetrahydro-2H-chromeno[3,4-c]pyridine-3-carbonyl)-N-((1-methylcyclopropyl)sulfonyl)benzamide]	10 to 30 nM
100 to 1000 nM	10 to 100 nM		20000 to 100000 nM	COC[C@H]1CN(c2cc(C)c3c4c(c(=O)oc3c2C)CN(C(=O)c2ccc(C(=O)NS(=O)(=O)N3CC5CC5C3)c(OC)c2F)CC4)CCN1C (stereo partly drawn) [Example 156, N-((3-azabicyclo[3.1.0]hexan-3-yl)sulfonyl)-3-fluoro-2-methoxy-4-(8-((R)-3-(methoxymethyl)-4-methylpiperazin-1-yl)-7,10-dimethyl-5-oxo-1,3,4,5-tetrahydro-2H-chromeno[3,4-c]pyridine-3-carbonyl)benzamide]	30 to 100 nM
10 to 100 nM	10 to 100 nM	G (^ 3 to 9.0)	> 100000 nM	COC[C@H]1CN(c2cc(C)c3c4c(c(=O)oc3c2C)CN(C(=O)c2ccc(C(=O)NS(=O)(=O)C3(C)CC3)c(N3CCCC3)c2F)CC4)CCN1C [Example 69, (R)-3-fluoro-4-(8-(3-(methoxymethyl)-4-methylpiperazin-1-yl)-7,10-dimethyl-5-oxo-1,3,4,5-tetrahydro-2H-chromeno[3,4-c]pyridine-3-carbonyl)-N-((1-methylcyclopropyl)sulfonyl)-2-(pyrrolidin-1-yl)benzamide]	1 to 10 nM

Compound	IC50 [1]	IC50 [2]	MTHFD1/MTHFD2 IC50 ratio [2]	IC50 [3]	IC50 (human CD4+ T cells)
COC[C@@H]1CN(c2cc(C)c3c4c(c(=O)oc3c2C)CN(C(=O)c2ccc(C(=O)NS(=O)(=O)N3CCCC3)c(OC3CCC3)c2F)CC4)CCN1C [Example 174, (S)-2-cyclobutoxy-3-fluoro-4-(8-(3-(methoxymethyl)-4-methylpiperazin-1-yl)-7,10-dimethyl-5-oxo-1,3,4,5-tetrahydro-2H-chromeno[3,4-c]pyridine-3-carbonyl)-N-(pyrrolidin-1-ylsulfonyl)benzamide]	100 to 1000 nM	10 to 100 nM	G (^ 3 to 9.0)	20000 to 100000 nM	10 to 30 nM
